Literature values, collected in US20250186477A1, “COMPOSITIONS COMPRISING FLUDARABINE PHOSPHATE AND METHODS OF MAKING AND USING SAME TO TREAT CANCER” (Areva Pharmaceuticals Limited, priority 2023, published 2025).

Details: refractory chronic lymphocytic leukemia patients receiving 22-40 mg/m^2 or 15-25 mg/m^2 fludarabine daily

In the case of `Nc1nc(F)nc2c1ncn2[C@@H]1O[C@H](CO)[C@@H](O)[C@@H]1O` [fludarabine, (2R,3S,4S,5R)-2-(6-amino-2-fluoropurin-9-yl)-5-(hydroxymethyl)oxolane-3,4-diol], the pneumonia is given as “high rates of pneumonia”.
